Earlier results on one compound are cited in patent publication US20210251886A1, “ORAL MUCOSAL DELIVERY SYSTEMS COMPRISING MONOPHASIC CONCENTRATE OF TERIPARATIDE” (ZIM LABORATORIES LIMITED, priority 2018, published 2021).

Like-named read-outs stand apart in the source and are kept apart here.

Usually bioavailability stands for the share of a dose that reaches the circulation, judged against a reference dose that is usually intravenous.

For the data set the following is noted: dogs.

For `CC[C@H](C)[C@H](NC(=O)[C@H](CCC(=O)O)NC(=O)[C@H](CO)NC(=O)[C@@H](NC(=O)[C@@H](N)CO)C(C)C)C(=O)N[C@@H](CCC(N)=O)C(=O)N[C@@H](CC(C)C)C(=O)N[C@@H](CCSC)C(=O)N[C@@H](Cc1cnc[nH]1)C(=O)N[C@@H](CC(N)=O)C(=O)N[C@@H](CC(C)C)C(=O)NCC(=O)N[C@@H](CCCCN)C(=O)N[C@@H](Cc1cnc[nH]1)C(=O)N[C@@H](CC(C)C)C(=O)N[C@@H](CC(N)=O)C(=O)N[C@@H](CO)C(=O)N[C@@H](CCSC)C(=O)N[C@@H](CCC(=O)O)C(=O)N[C@@H](CCCN=C(N)N)C(=O)N[C@H](C(=O)N[C@@H](CCC(=O)O)C(=O)N[C@@H](Cc1c[nH]c2ccccc12)C(=O)N[C@@H](CC(C)C)C(=O)N[C@@H](CCCN=C(N)N)C(=O)N[C@@H](CCCCN)C(=O)N[C@@H](CCCCN)C(=O)N[C@@H](CC(C)C)C(=O)N[C@@H](CCC(N)=O)C(=O)N[C@@H](CC(=O)O)C(=O)N[C@H](C(=O)N[C@@H](Cc1cnc[nH]1)C(=O)N[C@@H](CC(N)=O)C(=O)N[C@@H](Cc1ccccc1)C(=O)O)C(C)C)C(C)C` [PTH (1-34)], the bioavailability entry is listed as “about 3.3%” (buccal route) and 4.8% (oral route).
